Test results from patent publication US9205091B2, “Diazeniumdiolated compounds, pharmaceutical compositions, and method of treating cancer” (The United States of America, as represented by the …, priority 2009, dated 2015).

Tests used:
[1] = system: A549/CCL185; assay: MTT proliferation assay, JS-K 48 h (Example 3); assay type: cell-based, human; conditions: 10 concentrations 50 nM to 50 μM
Protocol: (§1) JS-K is synthesized as described previously (Saavedra et al., J. Org. Chem., 66: 3090-3098(2001)). Cell lines are obtained from the American Type Culture Collection (Manassas, Va.) and cultured according to the supplier's protocol. For proliferation assays cells are seeded at 2×10^4 per well in 96-well plates and allowed to adhere for 24 h. JS-K is prepared as 10 mM stock solution in DMSO. Increasing drug concentrations in 10 μL of PBS are added to 100 μL of the culture medium for 48 h. MTT assay (Promega, Madison, Wis.) is performed according to the manufacturer's protocol. Each concentration is represented in six repeats, and the screening is performed as at least two independent experiments. IC50 values are calculated using Sigma Plot software (Systat Software, Chicago, Ill.).

[2] = system: H1355/CRL5865; assay: MTT proliferation assay, JS-K 48 h (Example 3); assay type: cell-based, human; conditions: 10 concentrations 50 nM to 50 μM
Protocol: as §1

[3] = system: H1373/CRL5866; assay: MTT proliferation assay, JS-K 48 h (Example 3); assay type: cell-based, human; conditions: 10 concentrations 50 nM to 50 μM
Protocol: as §1

[4] = system: H1395/CRL5868; assay: MTT proliferation assay, JS-K 48 h (Example 3); assay type: cell-based, human; conditions: 10 concentrations 50 nM to 50 μM
Protocol: as §1

[5] = system: H1568/CRL5876; assay: MTT proliferation assay, JS-K 48 h (Example 3); assay type: cell-based, human; conditions: 10 concentrations 50 nM to 50 μM
Protocol: as §1

[6] = system: H1693/CRL5887; assay: MTT proliferation assay, JS-K 48 h (Example 3); assay type: cell-based, human; conditions: 10 concentrations 50 nM to 50 μM
Protocol: as §1

[7] = system: H1703/CRL5889; assay: MTT proliferation assay, JS-K 48 h (Example 3); assay type: cell-based, human; conditions: 10 concentrations 50 nM to 50 μM
Protocol: as §1

[8] = system: H1734/CRL5891; assay: MTT proliferation assay, JS-K 48 h (Example 3); assay type: cell-based, human; conditions: 10 concentrations 50 nM to 50 μM
Protocol: as §1

[9] = system: H1792/CRL5895; assay: MTT proliferation assay, JS-K 48 h (Example 3); assay type: cell-based, human; conditions: 10 concentrations 50 nM to 50 μM
Protocol: as §1

[10] = system: H1944/CRL5907; assay: MTT proliferation assay, JS-K 48 h (Example 3); assay type: cell-based, human; conditions: 10 concentrations 50 nM to 50 μM
Protocol: as §1

[11] = system: H2023/CRL5912; assay: MTT proliferation assay, JS-K 48 h (Example 3); assay type: cell-based, human; conditions: 10 concentrations 50 nM to 50 μM
Protocol: as §1

[12] = system: H2030/CRL5914; assay: MTT proliferation assay, JS-K 48 h (Example 3); assay type: cell-based, human; conditions: 10 concentrations 50 nM to 50 μM
Protocol: as §1

[13] = system: H2122/CRL5985; assay: MTT proliferation assay, JS-K 48 h (Example 3); assay type: cell-based, human; conditions: 10 concentrations 50 nM to 50 μM
Protocol: as §1

[14] = system: H2126/CRL5925; assay: MTT proliferation assay, JS-K 48 h (Example 3); assay type: cell-based, human; conditions: 10 concentrations 50 nM to 50 μM
Protocol: as §1

[15] = system: H322/CRL5806; assay: MTT proliferation assay, JS-K 48 h (Example 3); assay type: cell-based, human; conditions: 10 concentrations 50 nM to 50 μM
Protocol: as §1

[16] = system: H441/HTB174; assay: MTT proliferation assay, JS-K 48 h (Example 3); assay type: cell-based, human; conditions: 10 concentrations 50 nM to 50 μM
Protocol: as §1

[17] = system: H460/HTB177; assay: MTT proliferation assay, JS-K 48 h (Example 3); assay type: cell-based, human; conditions: 10 concentrations 50 nM to 50 μM
Protocol: as §1

[18] = system: H838/CRL5844; assay: MTT proliferation assay, JS-K 48 h (Example 3); assay type: cell-based, human; conditions: 10 concentrations 50 nM to 50 μM
Protocol: as §1

[19] = system: NSCLC cell lines; assay: MTT proliferation assay, JS-K, NSCLC panel summary; assay type: cell-based, human; conditions: six cell lines; read-out: IC50 range of the sensitive cell lines
Protocol: as §1

[20] = system: H1703 cells; assay: H1703 xenograft in athymic NCr-nu/nu mice, JS-K (Example 3); assay type: in vivo; conditions: 6 μmol/kg i.v., three times a week for three weeks
Protocol: (§2) H1944 or H1703 cells are injected at 5×10^6 s.c. into a flank of 7-week-old female athymic NCr-nu/nu mice (Charles River, Wilmington, Mass.). The drug injections are initiated when the tumors reached 2×2×2 mm (typically 3-4 weeks). JS-K is formulated in Pluronic P123 (P123) (BASF, Florham Park, N.J.) micelles. Animals are treated three times a week for three weeks with i.v. tail vein injections of either vehicle (2.25% P123 in PBS) or JS-K (6 μmol/kg in the vehicle). Tumors are measured using a caliper twice a week, and the tumor volumes are calculated using a formula for ellipsoid volume, π/6×L×W×H (Tomayko and Reynolds, 1989). The non-parametric Mann-Whitney test is utilized for statistical comparisons of tumor volumes at each time point. Body weights are taken before each drug injection. Animals are sacrificed 2 h after the last drug injection. Blood is collected by cardiac puncture under isoflurane anesthesia, for testing for cytokines. Cytokines in serum are measured using a mouse Th1/2 multiplex assay (Meso Scale Discovery, Gaithersburg, Md.), according to the manufacturer's protocol. There were 9-13 mice/group at termination.

[21] = system: H1944 cells; assay: H1944 xenograft in athymic NCr-nu/nu mice, JS-K (Example 3); assay type: in vivo; conditions: 6 μmol/kg i.v., three times a week for three weeks
Protocol: as §2

[22] = Body weight of xenograft mice, JS-K (Example 3); assay type: in vivo; conditions: 6 μmol/kg i.v., three times a week for three weeks
Protocol: as §2

[23] = system: H1703 cells; assay: H1703 xenograft in athymic NCr-nu/nu mice, tumor weights (Example 10); assay type: in vivo; conditions: 6 micromols/kg i.v., three times a week for three weeks
Protocol: H1703 cells are harvested at 80% confluence, washed with PBS, and suspended in PBS. The cells are injected at 5×10^6 s.c. into a flank of 7-week-old female athymic NCr-nu/nu mice (Charles River). […] Animals are treated three times a week for three weeks with i.v. tail vein injections of either vehicle (2.25% P-123 in PBS) or 1 or 2 (6 micromols/kg in the vehicle) or 6 (8 micromols/kg). Body weights are taken before each drug injection. Animals are sacrificed two hours after the last drug injection and the tumors are excised and weighed. There are 13-15 mice/group at termination. The non-parametric Mann-Whitney test is utilized for statistical comparisons of tumor weights.

[24] = system: H1703 cells; assay: Intracellular nitric oxide, DAF-FM diacetate; assay type: cell-based, human; conditions: 1 μM, up to 60 min
Protocol: (§3) Cells growing on 6-well plates are loaded with 2.5 μM DAF-FM diacetate in HBSS at 37° C. and 5% CO2. After 30 min of incubation the cells are rinsed with HBSS to remove excess probe, and JS-K in fresh HBSS is added to the cells at 1 μM final concentration. After 30 or 60 min incubation the fluorescence of the benzotriazole derivative formed on DAF-FM's reaction with aerobic NO is analyzed using a Perkin Elmer LS50B luminescence spectrometer with the excitation source at 495 nm and emission at 515 nm. All experiments are performed at least three times, each time in triplicate.

[25] = system: H1944 cells; assay: Intracellular nitric oxide, DAF-FM diacetate; assay type: cell-based, human; conditions: 1 μM, up to 60 min
Protocol: as §3

- IC50 [1]: 7.6 µM
- IC50 [2]: 7.93 µM
- IC50 [3]: 0.97 µM
- IC50 [4]: 3.17 µM
- IC50 [5]: 0.4 µM
- IC50 [6]: 0.33 µM
- IC50 [7]: 0.4 µM
- IC50 [8]: 0.36 µM
- IC50 [9]: 9.08 µM
- IC50 [10]: 17.6 µM
- IC50 [11]: 11.6 µM
- IC50 [12]: 14.7 µM
- IC50 [13]: 6.09 µM
- IC50 [14]: 4.13 µM
- IC50 [15]: 8.71 µM
- IC50 [16]: 1.01 µM
- IC50 [17]: 7.61 µM
- IC50 [18]: 5.84 µM
SMILES: CCOC(=O)N1CCN(/[N+]([O-])=N/Oc2ccc([N+](=O)[O-])cc2[N+](=O)[O-])CC1 [Compound 1]
- IC50 [19]: 0.33 to 1.01 µM
- growth of xenografted tumor cells vs vehicle [20]: significantly reduces growth
- growth of xenografted tumor cells vs vehicle [21]: significantly reduces growth
- effect on body weight [22]: did not affect body weight
- growth of H1703 human NSCLC cells in vivo vs vehicle [23]: significantly reduced growth
- reduction of the tumor weights ([23]; vs vehicle): 49%
- intracellular NO [24]: increase
- intracellular NO [25]: increase
